Test results from patent publication US5057512A, “3-amino-2-oxo-azetidine-1-sulfonic acids” (Uclaf; Roussel, priority 1981, dated 1991).

Key:
Experiment in all cases: M.I.C., dilutions in liquid medium
Assay type in all cases: cell-based
Enterobacter Cloacae 681 = settings: 37° C.
Procedure: (§1) A. Activity in Vitro-Method of Dilutions in Liquid Medium
(§2) A series of tubes was prepared in which the same amount of sterile nutritive medium was distributed and there was distributed in each tube increasing amounts of the test product. Then, each tube was inoculated with a bacterial strain and after incubation for twenty-four or forty-eight hours in an oven at 37° C., the inhibition of the growth was evaluated by trans-illumination to determine the minimum inhibiting concentrations (M.I.C.), expressed in μg/ml.

Providencia Du 48 = settings: Providencia, DU48, 37° C.
Procedure: as §1, §2

[1] = tested on: Salmonella typhimurium 420; settings: Salmonella enterica, 37° C.
Procedure: as §1, §2

[2] = tested on: Proteus vulgaris (indol +) A 232; settings: Proteus vulgaris, 37° C.
Procedure: as §1, §2

[3] = tested on: Proteus mirabilis (indol -) A 235; settings: Proteus mirabilis, 37° C.
Procedure: as §1, §2

[4] = tested on: Escherichia Coli Resistant to Tetracycline AT CC 11 303; settings: 37° C.
Procedure: as §1, §2

[5] = tested on: Escherichia Coli Resistant to Gentamycine Tobramycine R55 123 D; settings: 37° C.
Procedure: as §1, §2

[6] = tested on: Escherichia Coli Sensitive to Tetracycline 7624; settings: 37° C.
Procedure: as §1, §2

[7] = tested on: Serratia Resistant to Gentamycine 2 532; settings: Serratia, 37° C.
Procedure: as §1, §2

[8] = tested on: Klebsiella Pneumoniae Exp. 52145; settings: Klebsiella pneumoniae, 37° C.
Procedure: as §1, §2

[9] = tested on: Klebsiella Pneumoniae 2536 Resistant Gentamycine; settings: 37° C.
Procedure: as §1, §2

[10] = tested on: Klebsiella aerogenes 1522 E; settings: Klebsiella aerogenes, 1522E, 37° C.
Procedure: as §1, §2

Escherichia coli 1507 E = settings: Escherichia coli, 1507E, 37° C.
Procedure: as §1, §2

Escherichia coli T E M = settings: Escherichia coli, 37° C.
Procedure: as §1, §2

Escherichia coli 0 78 = settings: 37° C.
Procedure: as §1, §2

[11] = tested on: Salmonella typhimurium MZ 11; settings: Salmonella enterica, TYPHIMURIUM, 37° C.
Procedure: as §1, §2

Escherichia coli DC 0 = settings: Escherichia coli, 37° C.
Procedure: as §1, §2

[12] = tested on: Enterobacter cloacae 1321 E; settings: Enterobacter cloacae, 1321E, 37° C.
Procedure: as §1, §2

[13] = tested on: Klebsiella aerogenes 1082 E; settings: Klebsiella aerogenes, 1082E, 37° C.
Procedure: as §1, §2

[14] = tested on: Pseudomonas aeruginosa 1771 m; settings: Pseudomonas aeruginosa, 1771M, 37° C.
Procedure: as §1, §2

Escherichia coli UC 1894 = settings: Escherichia coli, UC1894, 37° C.
Procedure: as §1, §2

Escherichia coli DC 2 = settings: Escherichia coli, DC2, 37° C.
Procedure: as §1, §2

Work on `CON=C(C(=O)NC1C(=O)N(S(=O)(=O)O)C1CCl)c1csc(N)n1` (mixture of isomers) [Example 1, Racemate of syn isomer of cis 4-chloromethyl-3-[2-(2-amino-4-thiazolyl)-2-methoxyimino-acetamido]-2-oxoazetidine-1-sulfonic acid] yielded an MIC (Enterobacter Cloacae 681; CLOACAE681, 24 Hr.) of 2.5 µg/mL, an MIC (Enterobacter Cloacae 681; CLOACAE681, 48 Hr.) of 2.5 µg/mL and an MIC (Providencia Du 48; 24 Hr.) of 0.62 µg/mL. It also gave an MIC (Providencia Du 48; 48 Hr.) of 0.62 µg/mL, an MIC ([1]; 24 Hr.) of 1.25 µg/mL and an MIC ([1]; 48 Hr.) of 1.25 µg/mL. It also gave an MIC ([2]; 24 Hr.) of 0.08 µg/mL, an MIC ([2]; 48 Hr.) of 0.08 µg/mL and an MIC ([3]; 24 h) of 0.16 µg/mL. It also gave an MIC ([3]; 48 h) of 0.16 µg/mL, an MIC ([4]; 24 Hr.) of 0.16 µg/mL and an MIC ([4]; 48 Hr.) of 0.16 µg/mL. It also gave an MIC ([5]; 24 Hr.) of 0.62 µg/mL, an MIC ([5]; 48 Hr.) of 0.62 µg/mL and an MIC ([6]; 24 Hr.) of 1.25 µg/mL. The MIC ([6]; 48 Hr.) was 1.25 µg/mL, the MIC ([7]; 24 h) was 5 µg/mL and the MIC ([7]; 48 h) was 5 µg/mL. For the same molecule, the MIC ([8]; 24 h) was 1.25 µg/mL, the MIC ([8]; 48 h) was 2.5 µg/mL and the MIC ([9]; 24 Hr.) was 2.5 µg/mL. It also gave an MIC ([9]; 48 Hr.) of 2.5 µg/mL.
Molecule `CC(C)(ON=C(C(=O)NC1C(=O)N(S(=O)(=O)O)C1CF)c1csc(N)n1)C(=O)O` (mixture of isomers) [Example 6, Racemate of syn isomer of cis 4-fluoromethyl-3-[2-(2-amino-4-thiazolyl)-2-(1-carboxy-1-methyl-ethoxy)-imino-acetamido]-2-oxo-azetidine-1-sulfonic acid] has an MIC ([10]; 24 h) of 0.3 µg/mL, an MIC ([10]; 48 h) of 0.3 µg/mL and an MIC (Escherichia coli 1507 E; 24 h) of 0.6 µg/mL. The MIC (Escherichia coli 1507 E; 48 h) was 0.6 µg/mL, the MIC (Escherichia coli T E M; 24 h) was 0.6 µg/mL and the MIC (Escherichia coli T E M; 48 h) was 0.6 µg/mL. The MIC (Providencia Du 48; 24 Hr.) was 0.15 µg/mL, the MIC (Providencia Du 48; 48 Hr.) was 0.15 µg/mL and the MIC ([2]; 24 Hr.) was no more than 0.04 µg/mL. It also gave an MIC ([2]; 48 Hr.) of no more than 0.04 µg/mL, an MIC (Escherichia coli 0 78; Escherichia coli, 078, 24 h, 24 H) of 0.3 µg/mL and an MIC (Escherichia coli 0 78; Escherichia coli, 078, 48 h, 48 H) of 0.3 µg/mL. For the same molecule, the MIC ([11]; 24 h) was 0.6 µg/mL, the MIC ([11]; 48 h) was 0.6 µg/mL and the MIC ([3]; 24 h) was no more than 0.04 µg/mL. It also gave an MIC ([3]; 48 h) of no more than 0.04 µg/mL, an MIC (Escherichia coli DC 0; DC0, 24 h, 24 H) of 0.6 µg/mL and an MIC (Escherichia coli DC 0; DC0, 48 h, 48 H) of 0.6 µg/mL. The MIC ([12]; 24 H) was 0.3 µg/mL, the MIC ([12]; 48 H) was 0.3 µg/mL and the MIC ([13]; 24 h) was 0.6 µg/mL. It also gave an MIC ([13]; 48 h) of 0.6 µg/mL, an MIC ([14]; 24 H) of 0.3 µg/mL and an MIC ([14]; 48 H) of 0.6 µg/mL. The MIC (Escherichia coli UC 1894; 24 H) was 0.08 µg/mL, the MIC (Escherichia coli UC 1894; 48 H) was 0.08 µg/mL and the MIC (Escherichia coli DC 2; 24 H) was 0.3 µg/mL. It also gave an MIC (Escherichia coli DC 2; 48 H) of 0.3 µg/mL, an MIC ([7]; 24 h) of 0.3 µg/mL and an MIC ([7]; 48 h) of 0.3 µg/mL. It also gave an MIC ([8]; 24 h) of 0.6 µg/mL and an MIC ([8]; 48 h) of 0.6 µg/mL.
